From publication PMC9525273 (Nature Communications, 2022)
Where “and” joins values, the source holds several entries; their conditions need not be identical. Equal entries are not always repeated. Where two headings read alike, the source gives them in different places.

What was measured:
[1] = system: isolated Dd2-Polδ P. falciparum trophozoites; assay: [Na+]cyt measurement (SBFI), Na+ dysregulation; format: cell-based, Plasmodium falciparum; design: Final [Na+]cyt reached: unit not given here; details: for Final [Na+]cyt reached: Dd2-Polδ; for IC50: Plasmodium falciparum
Method: (§1) The ratio of the fluorescence intensity recorded at 340 nm and 380 nm (with an emission wavelength of 515 nm) was converted to [Na^+]cyt using a calibration procedure that entailed suspending parasites in solutions of varying [Na^+] containing ionophores. Fluorescence measurements and calibrations were performed at 37 °C, either with individual 1 mL suspensions using a PerkinElmer LS 50B fluorescence spectrometer (for resting [Na^+]cyt measurements for which the data are shown in Supplementary Fig. 7) or in 96-well plates using a Tecan Infinite M1000 PRO plate reader with i-control (version 1.12) software (all other [Na^+]cyt measurements).

[2] = system: isolated Dd2-Polδ-PfATP4^G358S P. falciparum trophozoites; assay: [Na+]cyt measurement (SBFI), Na+ dysregulation; format: cell-based, Plasmodium falciparum; design: Final [Na+]cyt reached: unit not given here
Method: as §1

[3] = DD2, 1.5 h, pH 7.1, Dd2-Polδ, ~90 min exposure, 37 °C, pH 7.1, mean ± SEM, read-out: IC50 for Na+ dysregulation
[4] = DD2, Dd2-Polδ, MEAN, source data of Table 1 (nM there), read-out: IC50 for Na+ dysregulation, MEAN
[5] = Dd2-Polδ-PfATP4G358S, single experiments, source data of Table 1 (nM there), read-out: IC50 for Na+ dysregulation
[6] = Plasmodium falciparum, DD2, 1.5 h, pH 7.1, Dd2-Polδ-PfATP4G358S, ~90 min exposure, 37 °C, pH 7.1, read-out: IC50 for Na+ dysregulation
[7] = Plasmodium falciparum, DD2, Dd2-Polδ-PfATP4G358S, MEAN, source data of Table 1 (nM there), read-out: IC50 for Na+ dysregulation, MEAN
[8] = Plasmodium falciparum, DD2, Dd2-Polδ-PfATP4G358S, single experiments, source data of Table 1 (nM there), read-out: IC50 for Na+ dysregulation

N#Cc1cc(NC(=O)[C@H]2c3ccccc3C(=O)N(CC(F)(F)F)[C@@H]2c2cccnc2)ccc1F [(+)-SJ733]
Final [Na+]cyt reached ([1]; [(+)-SJ733] 9.8 nM, MEAN): 24.0
Final [Na+]cyt reached ([1]; [(+)-SJ733] 19.5 nM, MEAN): 33.0
Final [Na+]cyt reached ([1]; [(+)-SJ733] 39.1 nM, MEAN): 53.8
Final [Na+]cyt reached ([1]; [(+)-SJ733] 78.1 nM, MEAN): 78.4
Final [Na+]cyt reached ([1]; [(+)-SJ733] 156.3 nM, MEAN): 97.5
Final [Na+]cyt reached ([1]; [(+)-SJ733] 156.3 nM, single experiments): 122.9 and 77.5 and 89.5 and 99.9
Final [Na+]cyt reached ([1]; [(+)-SJ733] 312.5 nM, MEAN): 102.1
Final [Na+]cyt reached ([1]; [(+)-SJ733] 312.5 nM, single experiments): 131.1 and 85.2 and 96.4 and 95.7
Final [Na+]cyt reached ([1]; [(+)-SJ733] 625 nM, MEAN): 112.5
Final [Na+]cyt reached ([1]; [(+)-SJ733] 625 nM, single experiments): 132.7 and 104.6 and 109.2 and 103.6
Final [Na+]cyt reached ([1]; [(+)-SJ733] 2500 nM, MEAN): 112.4
Final [Na+]cyt reached ([1]; [(+)-SJ733] 2500 nM, single experiments): 123.5 and 114.1 and 104.4 and 107.6
Final [Na+]cyt reached ([1]; [(+)-SJ733] 5000 nM, MEAN): 111.0
Final [Na+]cyt reached ([1]; [(+)-SJ733] 5000 nM, single experiments): 138.3 and 95.8 and 115.2 and 94.7
Final [Na+]cyt reached ([1]; [(+)-SJ733] 10000 nM, MEAN): 115.2
Final [Na+]cyt reached ([1]; [(+)-SJ733] 10000 nM, single experiments): 139.1 and 108.5 and 119.1 and 94.2
Final [Na+]cyt reached ([1]; [(+)-SJ733] 20000 nM, MEAN): 108.1
Final [Na+]cyt reached ([1]; [(+)-SJ733] 20000 nM, single experiments): 139.5 and 98.0 and 111.1 and 84.0
IC50 [1, 3]: 55 ± 15 nM
IC50 [1, 4]: 55 nM
difference in potency between the drugs ([1]; vs cipargamin, [Na+]cyt assays (P. falciparum, T. gondii) and P. falciparum proliferation assays): > 6 fold
Final [Na+]cyt reached ([2]; Dd2-Polδ-PfATP4G358S, [(+)-SJ733] 9.8 nM, MEAN): 28.4
Final [Na+]cyt reached ([2]; Dd2-Polδ-PfATP4G358S, [(+)-SJ733] 9.8 nM, single experiments): 25.4 and 25.6 and 34.3
Final [Na+]cyt reached ([2]; Dd2-Polδ-PfATP4G358S, [(+)-SJ733] 19.5 nM, MEAN): 28.2
Final [Na+]cyt reached ([2]; Dd2-Polδ-PfATP4G358S, [(+)-SJ733] 19.5 nM, single experiments): 24.8 and 26.3 and 33.5
Final [Na+]cyt reached ([2]; Dd2-Polδ-PfATP4G358S, [(+)-SJ733] 39.1 nM, MEAN): 28.7
Final [Na+]cyt reached ([2]; Dd2-Polδ-PfATP4G358S, [(+)-SJ733] 39.1 nM, single experiments): 26.5 and 26.8 and 32.9
Final [Na+]cyt reached ([2]; Dd2-Polδ-PfATP4G358S, [(+)-SJ733] 78.1 nM, MEAN): 29.0
Final [Na+]cyt reached ([2]; Dd2-Polδ-PfATP4G358S, [(+)-SJ733] 78.1 nM, single experiments): 26.6 and 27.0 and 33.4
Final [Na+]cyt reached ([2]; Dd2-Polδ-PfATP4G358S, [(+)-SJ733] 156.3 nM, MEAN): 28.6
Final [Na+]cyt reached ([2]; Dd2-Polδ-PfATP4G358S, [(+)-SJ733] 156.3 nM, single experiments): 25.8 and 27.2 and 32.8
Final [Na+]cyt reached ([2]; Dd2-Polδ-PfATP4G358S, [(+)-SJ733] 312.5 nM, MEAN): 25.7
Final [Na+]cyt reached ([2]; Dd2-Polδ-PfATP4G358S, [(+)-SJ733] 312.5 nM, single experiments): 25.5 and 26.1 and 32.5 and 18.8
Final [Na+]cyt reached ([2]; Dd2-Polδ-PfATP4G358S, [(+)-SJ733] 625 nM, MEAN): 26.8
Final [Na+]cyt reached ([2]; Dd2-Polδ-PfATP4G358S, [(+)-SJ733] 625 nM, single experiments): 26.0 and 26.8 and 34.1 and 20.2
Final [Na+]cyt reached ([2]; Dd2-Polδ-PfATP4G358S, [(+)-SJ733] 2500 nM, MEAN): 28.2
Final [Na+]cyt reached ([2]; Dd2-Polδ-PfATP4G358S, [(+)-SJ733] 2500 nM, single experiments): 27.1 and 27.5 and 36.9 and 21.3
Final [Na+]cyt reached ([2]; Dd2-Polδ-PfATP4G358S, [(+)-SJ733] 5000 nM, MEAN): 30.8
Final [Na+]cyt reached ([2]; Dd2-Polδ-PfATP4G358S, [(+)-SJ733] 5000 nM, single experiments): 29.9 and 28.6 and 41.3 and 23.6
Final [Na+]cyt reached ([2]; Dd2-Polδ-PfATP4G358S, [(+)-SJ733] 10000 nM, MEAN): 38.0
Final [Na+]cyt reached ([2]; Dd2-Polδ-PfATP4G358S, [(+)-SJ733] 10000 nM, single experiments): 34.4 and 33.8 and 55.9 and 28.0
Final [Na+]cyt reached ([2]; Dd2-Polδ-PfATP4G358S, [(+)-SJ733] 20000 nM, MEAN): 58.1
Final [Na+]cyt reached ([2]; Dd2-Polδ-PfATP4G358S, [(+)-SJ733] 40000 nM, MEAN): 76.7
Final [Na+]cyt reached ([2]; Dd2-Polδ-PfATP4G358S, [(+)-SJ733] 40000 nM, single experiments): 88.7 and 92.6 and 48.8
IC50 [2, 5]: > 20000 nM
IC50 [2, 6]: > 10000 nM
IC50 [2, 7]: > 10000 nM
IC50 [2, 8]: > 10000 nM

C[C@H]1Cc2c([nH]c3cc(Cl)c(F)cc23)[C@@]2(N1)C(=O)Nc1ccc(Cl)cc12 [Cipargamin]
Final [Na+]cyt reached ([1]; [cipargamin] 0.06 nM, MEAN): 13.0
Final [Na+]cyt reached ([1]; [cipargamin] 0.12 nM, MEAN): 12.3
Final [Na+]cyt reached ([1]; [cipargamin] 0.244 nM, MEAN): 15.5
Final [Na+]cyt reached ([1]; [cipargamin] 0.5 nM, MEAN): 26.2
Final [Na+]cyt reached ([1]; [cipargamin] 1.0 nM, MEAN): 27.3
Final [Na+]cyt reached ([1]; [cipargamin] 2.0 nM, MEAN): 45.7
Final [Na+]cyt reached ([1]; [cipargamin] 3.9 nM, MEAN): 57.4
Final [Na+]cyt reached ([1]; [cipargamin] 7.8 nM, MEAN): 88.5
Final [Na+]cyt reached ([1]; [cipargamin] 15.6 nM, MEAN): 98.7
Final [Na+]cyt reached ([1]; [cipargamin] 31.3 nM, MEAN): 113.1
Final [Na+]cyt reached ([1]; [cipargamin] 62.5 nM, MEAN): 115.1
Final [Na+]cyt reached ([1]; [cipargamin] 62.5 nM, single experiments): 78.0 and 146.2 and 96.4 and 129.7 and 125.5
Final [Na+]cyt reached ([1]; [cipargamin] 250 nM, MEAN): 115.9
Final [Na+]cyt reached ([1]; [cipargamin] 250 nM, single experiments): 94.4 and 105.7 and 130.4 and 132.9
IC50 [1, 3]: 8.4 ± 3 nM
IC50 [1, 4]: 8.38 nM
Final [Na+]cyt reached ([2]; Dd2-Polδ-PfATP4G358S, [cipargamin] 4.9 nM, MEAN): 28.1
Final [Na+]cyt reached ([2]; Dd2-Polδ-PfATP4G358S, [cipargamin] 4.9 nM, single experiments): 19.9 and 30.8 and 33.6
Final [Na+]cyt reached ([2]; Dd2-Polδ-PfATP4G358S, [cipargamin] 9.8 nM, MEAN): 23.6
Final [Na+]cyt reached ([2]; Dd2-Polδ-PfATP4G358S, [cipargamin] 19.5 nM, MEAN): 24.9
Final [Na+]cyt reached ([2]; Dd2-Polδ-PfATP4G358S, [cipargamin] 39.1 nM, MEAN): 26.7
Final [Na+]cyt reached ([2]; Dd2-Polδ-PfATP4G358S, [cipargamin] 78.1 nM, MEAN): 27.0
Final [Na+]cyt reached ([2]; Dd2-Polδ-PfATP4G358S, [cipargamin] 156.3 nM, MEAN): 28.5
Final [Na+]cyt reached ([2]; Dd2-Polδ-PfATP4G358S, [cipargamin] 312.5 nM, MEAN): 31.8
Final [Na+]cyt reached ([2]; Dd2-Polδ-PfATP4G358S, [cipargamin] 625 nM, MEAN): 35.9
Final [Na+]cyt reached ([2]; Dd2-Polδ-PfATP4G358S, [cipargamin] 2500 nM, MEAN): 55.3
Final [Na+]cyt reached ([2]; Dd2-Polδ-PfATP4G358S, [cipargamin] 5000 nM, MEAN): 78.8
Final [Na+]cyt reached ([2]; Dd2-Polδ-PfATP4G358S, [cipargamin] 10000 nM, MEAN): 93.3
IC50 [2, 5]: > 2500 nM and 3420 nM and 2100 nM and 3020 nM
IC50 [2, 6]: > 2000 nM
IC50 [2, 7]: > 2000 nM
IC50 [2, 8]: 3540 nM
